# Assay results published in US20240067693A1, “POLYPEPTIDES AND USES THEREOF” (MEDIMMUNE LIMITED, priority 2020, published 2024).
# Numbered stars: 1 amine (or outer) side, 2 acyl side, 3 side chain; on linkers, the order of the positions; unused ones are H or OH. Bridge positions count the residues as written; N and C are the ends. Square brackets hold non-standard residues; d marks the D form. Side chains are listed from the residue outwards. Peptide text beside a SMILES is read from it. * marks the point of attachment. C18 diacid = O=C(O)CCCCCCCCCCCCCCCCC(=O)*; γGlu = O=C(O)[C@H](CCC(=O)[*:2])N[*:1]; αMeF = C[C@](N)(Cc1ccccc1)C(=O)O; Dab = NCC[C@H](N)C(=O)O; Aib = CC(C)(N)C(=O)O
# Legend:
# lean rats = assay: Rat acute food intake study; assay type: in vivo; conditions: lean male Sprague Dawley rats, 20 nmol/kg subcutaneously
# Summary of the method: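 Male Sprague Dawley rats (n=7/group), fasted 6 h, received 20 nmol/kg test compound or 60 nmol/kg pramlintide subcutaneously 30 min before food return at dark onset. Food intake recorded automatically in home cages over 3 days, binned hourly and analysed as cumulative dark-period intake; body weight taken daily.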
# [1] = target: T1, rat calcitonin receptor (rat CTR) (Rattus norvegicus, UniProt P32214); assay: cAMP production in HEK cells with stable recombinant expression of rat calcitonin receptor (rat CTR); assay type: cell-based; conditions: assay buffer with 0.1% BSA
# T1 construct: expressed in transfected cells
# T1 sequence (P32214 25-516): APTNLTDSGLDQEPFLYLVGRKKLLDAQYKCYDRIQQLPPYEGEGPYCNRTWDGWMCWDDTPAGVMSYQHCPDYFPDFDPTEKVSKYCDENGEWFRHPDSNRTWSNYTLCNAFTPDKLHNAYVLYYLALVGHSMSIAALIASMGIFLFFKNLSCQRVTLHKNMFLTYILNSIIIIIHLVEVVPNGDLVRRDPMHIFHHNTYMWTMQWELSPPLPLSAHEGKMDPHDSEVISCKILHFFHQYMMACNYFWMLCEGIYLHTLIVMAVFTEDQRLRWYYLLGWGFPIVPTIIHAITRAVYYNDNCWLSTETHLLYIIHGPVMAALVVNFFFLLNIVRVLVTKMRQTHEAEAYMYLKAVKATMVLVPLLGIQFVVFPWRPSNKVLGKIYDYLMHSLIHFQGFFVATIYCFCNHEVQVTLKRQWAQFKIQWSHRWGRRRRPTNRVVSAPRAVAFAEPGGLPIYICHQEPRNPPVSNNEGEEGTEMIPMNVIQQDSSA
# Summary of the method: (§1)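 EC50 values come from 4-parameter logistic fits of HTRF cAMP signal, normalised to maximal calcitonin or amylin effect. Peptides were tested in duplicate for 30 min at RT in IBMX-containing (0.5 mM) BSA/HEPES buffer pH 7.4 on stable 1321N1 (human CTR, AMYR3) or HEK (rat CTR, AMYR3) lines.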
# in vivo = conditions: male, Sprague-Dawley, rat, 20 nmol/kg
# Method: PK studies were performed to determine the half-life (T1/2) of test peptides. T1/2 describes the time taken for the maximum plasma concentration (Cmax) of a test substance to halve its steady-state concentration when in circulation.
# Male SD rats were purchased from Si Bei Fu Laboratory Animal Technology Co. Ltd (China). The animals were 6-8 weeks old with body weights of 200-300 g on the dosing date. The animals were housed in a 12-hour light/12-hour dark cycle environment and were fasted overnight before dosing. The body weight of the animals were recorded before dosing, 24 h and 48 h post dosing . Animals had free access to food and drinks, and the food consumption was quantified every day.
# Test articles were administered at 20 nmol/kg. Blood samples were collected from each animal via Jugular vein.
# The blood samples were transferred into eppendorf low binding tube containing K2 EDTA. Above 0.150 mL blood were collected at each time point. Blood samples were centrifuged at 4,000 g for 5 minutes at 4° C. to obtain plasma. The plasma samples were stored frozen at −75±15° C. until analysis.
# Concentrations of the test articles in the plasma samples were analyzed using a LC-MS/MS method. Data acquisition was performed by LabSolution version 5.89 software (Shimadzu, Kyoto, Japan). Data statistics were performed using Excel 97-2003 software. The pharmacokinetic parameters of test articles were calculated using a non-compartmental approach with Phoenix™ VVinNonlin® 6.1.
# The following pharmacokinetic parameters were calculated, whenever possible from the plasma concentration versus time data: • IV administration: T1/2, C0, AUClast, AUCinf, MRTinf, Cl, Vss, Number of Points for Regression. • SC administration: Tmax, Cmax, AUClast, AUCinf, MRTinf, F, Number of Points for Regression.
# [2] = target: T2, human amylin receptor (calcitonin receptor co-expressed with receptor activity modifying protein, RAMP3) (hAMYR3) (Homo sapiens, UniProt O60896+P30988); assay: cAMP production in 1321N1 cells with stable recombinant expression of human amylin receptor (hAMYR3); assay type: cell-based; conditions: for Ratio (selectivity hAMYR vs hCTR, ratio of EC50 values at the two receptors): EC50 hCTR / EC50 hAMYR3; for EC50: cAMP, 1321N1 cells, assay buffer with 0.1% BSA, read-out: EC50 (pM) hAMYR3
# T2 construct: expressed in transfected cells
# T2 sequence (P30988 25-474): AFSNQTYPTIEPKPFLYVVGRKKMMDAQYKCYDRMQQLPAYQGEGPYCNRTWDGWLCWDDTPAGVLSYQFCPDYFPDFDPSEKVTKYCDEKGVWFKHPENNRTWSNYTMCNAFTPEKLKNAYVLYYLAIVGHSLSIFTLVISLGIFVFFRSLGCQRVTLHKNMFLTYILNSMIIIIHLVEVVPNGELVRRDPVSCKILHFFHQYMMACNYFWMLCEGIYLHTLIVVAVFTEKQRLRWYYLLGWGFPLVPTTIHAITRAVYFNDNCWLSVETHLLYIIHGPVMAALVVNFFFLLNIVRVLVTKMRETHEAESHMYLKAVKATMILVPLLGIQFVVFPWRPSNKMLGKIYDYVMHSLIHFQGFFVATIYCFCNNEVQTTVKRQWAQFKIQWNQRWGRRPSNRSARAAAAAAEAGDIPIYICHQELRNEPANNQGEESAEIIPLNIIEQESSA
# T2 sequence (O60896 24-148 partner): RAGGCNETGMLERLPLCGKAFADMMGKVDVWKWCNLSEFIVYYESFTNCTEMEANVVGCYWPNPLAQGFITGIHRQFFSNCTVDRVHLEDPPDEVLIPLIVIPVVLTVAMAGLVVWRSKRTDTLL
# Summary of the method: as §1
EC50 [1] [pM],half-life (in vivo; iv) [h],half-life (in vivo; sc) [h],"Ratio (selectivity hAMYR vs hCTR, ratio of EC50 values at the two receptors) [2]",EC50 [2] [pM],Structure (SMILES),Cummulative food intake (% vehicle treated intake) At 12 h (lean rats) [% vehicle treated intake],Cummulative food intake (% vehicle treated intake) At 24 h (lean rats) [% vehicle treated intake],Cummulative food intake (% vehicle treated intake) At 48 h (lean rats) [% vehicle treated intake]
9720,5.9,7.8,42,320,"CC[C@H](C)[C@H](NC(=O)[C@H](C)NC(=O)[C@@H]1CCCN1C(=O)[C@H](Cc1ccccc1)NC(=O)[C@H](CC(N)=O)NC(=O)C(C)(C)NC(=O)[C@H](CO)NC(=O)[C@H](CO)NC(=O)[C@H](Cc1c[nH]cn1)NC(=O)[C@@H](NC(=O)[C@H](CC(C)C)NC(=O)[C@H](Cc1ccccc1)NC(=O)[C@H](CC(N)=O)NC(=O)[C@H](C)NC(=O)[C@H](CC(C)C)NC(=O)[C@H](CCCNC(=N)N)NC(=O)[C@H](CCC(N)=O)NC(=O)[C@@H](NC(=O)[C@H](C)NC(=O)[C@@H]1CSSC[C@H](NC(=O)[C@@H](N)CCCCNC(=O)CC[C@H](NC(=O)CC[C@H](NC(=O)CCCCCCCCCCCCCCCCC(=O)O)C(=O)O)C(=O)O)C(=O)N[C@@H](CC(N)=O)C(=O)N[C@@H]([C@@H](C)O)C(=O)N[C@@H](C)C(=O)N[C@@H]([C@@H](C)O)C(=O)N1)[C@@H](C)O)C(C)C)C(=O)N[C@@H](CC(C)C)C(=O)N[C@@H](CO)C(=O)N1CCC[C@H]1C(=O)N[C@H](C(=O)N[C@@H](CC(N)=O)C(=O)N[C@H](C(=O)NCC(=O)N[C@@H](CO)C(=O)N[C@@H](CC(N)=O)C(=O)N[C@H](C(=O)N[C@@H](Cc1ccc(O)cc1)C(N)=O)[C@@H](C)O)C(C)C)[C@@H](C)O [Peptide 9, K(γE-γE-C18diacid)[CNTATC]ATQRLANFLVHSS(Aib)NFPAILSPTNVGSNTY-amide] (H-K([γGlu-γGlu-C18 diacid])CNTATCATQRLANFLVHSS[Aib]NFPAILSPTNVGSNTY-NH2; disulfide 2-7)",21.9,30.8,56.5
186,14,–,5,246,CC[C@H](C)[C@H](NC(=O)[C@@H]1CCCN1C(=O)CNC(=O)[C@H](Cc1ccccc1)NC(=O)[C@H](CC(N)=O)NC(=O)[C@H](CC(N)=O)NC(=O)[C@H](CO)NC(=O)[C@H](CO)NC(=O)[C@H](Cc1c[nH]cn1)NC(=O)[C@@H](NC(=O)[C@H](CC(C)C)NC(=O)[C@H](Cc1ccccc1)NC(=O)[C@H](CC(N)=O)NC(=O)[C@H](C)NC(=O)[C@H](CC(C)C)NC(=O)[C@H](CCCNC(=N)N)NC(=O)[C@H](CCC(N)=O)NC(=O)[C@@H](NC(=O)[C@H](C)NC(=O)[C@@H]1CSSC[C@H](NC(=O)[C@H](CCCCN)NC(=O)CC[C@H](NC(=O)CCCCCCCCCCCCCCCCC(=O)O)C(=O)O)C(=O)N[C@@H](CC(N)=O)C(=O)N[C@@H]([C@@H](C)O)C(=O)N[C@@H](C)C(=O)N[C@@H]([C@@H](C)O)C(=O)N1)[C@@H](C)O)C(C)C)C(=O)N[C@@H](CC(C)C)C(=O)N1CCC[C@H]1C(=O)N1CCC[C@H]1C(=O)N[C@H](C(=O)N[C@@H](CC(N)=O)C(=O)N[C@H](C(=O)NCC(=O)N[C@@H](CO)C(=O)N[C@@H](CC(N)=O)C(=O)N[C@H](C(=O)N[C@@H](Cc1ccc(O)cc1)C(N)=O)[C@@H](C)O)C(C)C)[C@@H](C)O [Peptide 3] ({C18 diacid-γGlu}-KCNTATCATQRLANFLVHSSNNFGPILPPTNVGSNTY-NH2; disulfide 2-7),13.4,14.4,30.3
755,9.4,10.5,15,127,"CC[C@H](C)[C@H](NC(=O)[C@@H]1CCCN1C(=O)CNC(=O)[C@](C)(Cc1ccccc1)NC(=O)[C@H](CC(N)=O)NC(=O)[C@H](CC(N)=O)NC(=O)[C@H](CO)NC(=O)[C@H](CO)NC(=O)[C@H](Cc1c[nH]cn1)NC(=O)[C@@H](NC(=O)[C@H](CC(C)C)NC(=O)[C@H](Cc1ccccc1)NC(=O)[C@H](CC(N)=O)NC(=O)[C@H](C)NC(=O)[C@H](CC(C)C)NC(=O)[C@H](CCCNC(=N)N)NC(=O)[C@H](CCC(N)=O)NC(=O)[C@@H](NC(=O)[C@H](C)NC(=O)[C@@H]1CSSC[C@H](NC(=O)[C@@H](N)CCCCNC(=O)CC[C@H](NC(=O)CC[C@H](NC(=O)CCCCCCCCCCCCCCCCC(=O)O)C(=O)O)C(=O)O)C(=O)N[C@@H](CC(N)=O)C(=O)N[C@@H]([C@@H](C)O)C(=O)N[C@@H](C)C(=O)N[C@@H]([C@@H](C)O)C(=O)N1)[C@@H](C)O)C(C)C)C(=O)N[C@@H](CC(C)C)C(=O)N1CCC[C@H]1C(=O)N1CCC[C@H]1C(=O)N[C@H](C(=O)N[C@@H](CCCNC(=N)N)C(=O)N[C@H](C(=O)NCC(=O)N[C@@H](CO)C(=O)N[C@@H](CC(N)=O)C(=O)N[C@H](C(=O)N[C@@H](Cc1ccc(O)cc1)C(N)=O)[C@@H](C)O)C(C)C)[C@@H](C)O [Peptide 24, K(γE-γE-C18diacid)[CNTATC]ATQRLANFLVHSSNN(αMePhe)GPILPPTRVGSNTY-amide] (H-K([γGlu-γGlu-C18 diacid])CNTATCATQRLANFLVHSSNN[αMeF]GPILPPTRVGSNTY-NH2; disulfide 2-7; N-terminus assumed)",18.7,19.4,40.6
19900,4.2,6.2,54,375,"CC[C@H](C)[C@H](NC(=O)[C@H](C)NC(=O)[C@@H]1CCCN1C(=O)[C@H](Cc1ccccc1)NC(=O)[C@H](CC(N)=O)NC(=O)[C@H](CCN)NC(=O)[C@H](CO)NC(=O)[C@H](CO)NC(=O)[C@H](Cc1c[nH]cn1)NC(=O)[C@@H](NC(=O)[C@H](CC(C)C)NC(=O)[C@H](Cc1ccccc1)NC(=O)[C@H](CC(N)=O)NC(=O)[C@H](C)NC(=O)[C@H](CC(C)C)NC(=O)[C@H](CCCNC(=N)N)NC(=O)[C@H](CCC(N)=O)NC(=O)[C@@H](NC(=O)[C@H](C)NC(=O)[C@@H]1CSSC[C@H](NC(=O)[C@@H](N)CCCCNC(=O)CC[C@H](NC(=O)CC[C@H](NC(=O)CCCCCCCCCCCCCCCCC(=O)O)C(=O)O)C(=O)O)C(=O)N[C@@H](CC(N)=O)C(=O)N[C@@H]([C@@H](C)O)C(=O)N[C@@H](C)C(=O)N[C@@H]([C@@H](C)O)C(=O)N1)[C@@H](C)O)C(C)C)C(=O)N[C@@H](CC(C)C)C(=O)N[C@@H](CO)C(=O)N1CCC[C@H]1C(=O)N[C@H](C(=O)N[C@@H](CC(N)=O)C(=O)N[C@H](C(=O)NCC(=O)N[C@@H](CO)C(=O)N[C@@H](CC(N)=O)C(=O)N[C@H](C(=O)N[C@@H](Cc1ccc(O)cc1)C(N)=O)[C@@H](C)O)C(C)C)[C@@H](C)O [Peptide 8, K(γE-γE-C18diacid)[CNTATC]ATQRLANFLVHSS(Dab)NFPAILSPTNVGSNTY-amide] (H-K([γGlu-γGlu-C18 diacid])CNTATCATQRLANFLVHSS[Dab]NFPAILSPTNVGSNTY-NH2; disulfide 2-7)",28.1,42.7,68.8
